Measured values as given in patent US20240285634A1, “COMPOUND AND METHOD FOR TREATING CHEMOTHERAPY-ASSOCIATED GASTROINTESTINAL SIDE EFFECTS” (ONQUALITY PHARMACEUTICALS CHINA LTD., priority 2021, published 2024).

Tests used:
[1] = tested on: Chemotherapeutic agent-caused constipation models of Balb/c mice; experiment: Relieving effect on constipation caused by a chemotherapeutic agent (Examples 202-364); format: in vivo; details: for feces reduction rates compared with the chemotherapeutic agent group: administered before the chemotherapeutic agent, Table 4 and FIG. 4
Excerpt: Construction of mouse animal models: Chemotherapeutic agent-caused constipation models of Balb/c mice were constructed according to the administration mode and frequency of the chemotherapeutic agent as shown in Table 4. […] Thus, chemotherapeutic agent-caused constipation models of mice are very good models to mimic constipation caused by the chemotherapeutic agent.
Balb/c mice were fed for 1 week, and then divided into groups. The experiment was divided into a control group, a chemotherapeutic agent group, and a group of the compound as shown in Formula I, each of which comprised 10 mice, to perform the administration experiment, for which the administration dosage, mode, time and frequency were shown in Table 4. The control group: being injected or intragastrically administered with the same solvent as that used in the group of the compound as shown in Formula I (the administration mode and time were shown in Table 4), and then being injected or intragastrically administered with the same solvent as that used in the chemotherapeutic agent group (the administration mode was shown in Table 4); the chemotherapeutic agent group: being injected or intragastrically administered with the same solvent as that used in the group of the compound as shown in Formula I (the administration mode and time was shown in Table 4), and then being injected or intragastrically administered with the chemotherapeutic agent (the type, administration mode and dosage were shown in Table 4); the group of the compound as shown in Formula I: being injected or intragastrically administered with the compound as shown in Formula I (the administration mode and time was shown in Table 4), and then being administered with the chemotherapeutic agent (the administration mode and dosage were shown in Table 4).
The feces reduction rate was calculated with reference to the method of Ji Eun Kim (Lab Anim Res. 2016 December; 32(4): 231-240.). Feces reduction rate (%)=(the control group−the chemotherapeutic agent group or the group of the compound as shown in Formula I)/the control group*100%
It is regarded as effective remission when the feces reduction rate of mice in the group of the compound as shown in Formula I is reduced compared with that in the chemotherapeutic agent group.
The feces amount of mice within 3 hours was observed and recorded every day. At the end of the experiment, the number of mice in the group of the compound as shown in Formula I whose feces reduction rate was lower than that of mice in the chemotherapeutic agent group was recorded. Table 4 lists various animal experiment combinations of chemotherapeutic agents and the compound as shown in Formula I, as well as the corresponding experimental results.

[2] = tested on: Balb/c mice, diarrhea caused by continuous administration of a chemotherapeutic agent; experiment: Relieving effect on diarrhea caused by the continuous administration of a chemotherapeutic agent (Examples 365-384); format: in vivo; details: for Relative remission rate (%): for 3 days, cycle 8 days
Excerpt: Balb/c mice were fed for 1 week, and then divided into groups. The experiment was divided into a control group, a chemotherapeutic agent group, and a group of the compound as shown in Formula I, each of which comprised 10 mice, to perform the administration experiment, for which the administration dosage, mode, time and frequency were shown in Table 5. The control group: being injected or intragastrically administered with the same solvent as that used in the group of the compound as shown in Formula I (the administration mode and time were shown in Table 5), and then being injected or intragastrically administered with the same solvent as that used in the chemotherapeutic agent group (the administration mode was shown in Table 5); the chemotherapeutic agent group: being injected or intragastrically administered with the same solvent as that used in the group of the compound as shown in Formula I (the administration mode and time were shown in Table 5), and then being injected or intragastrically administered with the chemotherapeutic agent (the type, administration mode, time and dosage were shown in Table 5); the group of the compound as shown in Formula I: being injected or intragastrically administered with the compound as shown in Formula I (the administration mode and time were shown in Table 5), and then being administered with the chemotherapeutic agent (the type, administration mode, time and dosage were shown in Table 5).
The scoring of diarrhea can refer to the method of Akinobu Kurita (Cancer Chemother Pharmacol 2000; 46:211-20.), Grade 0): normal feces; Grade 1: mild diarrhea, the stools is slightly wet and soft; Grade 2: moderate diarrhea, loose stools and mild perianal contamination; Grade 3: severe diarrhea, watery stools and accompanied by severe perianal staining (see FIG. 1). It is regarded as effective remission when the diarrhea grading of mice in the group of the compound as shown in Formula I is reduced compared with the average diarrhea grading of mice in the chemotherapeutic agent group.
The diarrhea grading of mice was observed and recorded every day. At the end of the experiment, the number of mice in the group of the compound as shown in Formula I whose diarrhea grading was lower than that of mice in the chemotherapeutic agent group was recorded. Table 5 lists various animal experiment combinations of chemotherapeutic agents and the compound as shown in Formula I, as well as the corresponding experimental results. (Relative remission rate %=the number of mice in the group of the compound as shown in Formula I whose diarrhea has been effectively relieved/the total number of mice in the group of the compound as shown in Formula I*100%. The establishment rate of diarrhea model in the chemotherapeutic agent group was 50%-80%, that is, about 5-8 of 10 mice developed diarrhea during the experiment, and there were cases of individual mice death or not developing diarrhea.)

[3] = continuous administration of the chemotherapeutic agent for 7 days or less
[4] = continuous administration of the chemotherapeutic agent for less than 7 days

Structure (SMILES): O=C1NCC2(CCCCC2)n2c1cc1cnc(Nc3ccc(N4CCC(N5CCOCC5)CC4)cn3)nc12 [Compound III]
- Relative remission rate (%) ([1]; Example 320, Fluorouracil 125 (F) and irinotecan 240 (I) mg/kg intraperitoneal injection single, compound subcutaneous injection 100 mg/kg single, 0.5 h before chemotherapeutic agent, cycle 7 days): 50%
- Relative remission rate (%) ([1]; Example 321, Fluorouracil 125 (F) and irinotecan 240 (I) mg/kg intraperitoneal injection single, compound subcutaneous injection 100 mg/kg single, 24 h before chemotherapeutic agent, cycle 7 days): 20%
- Relative remission rate (%) ([1]; Example 349, Fluorouracil 100 (F), oxaliplatin 5 (O), irinotecan 100 (I) and tetrahydrofolic acid 100 (L) mg/kg intraperitoneal injection single, compound oral administration 150 mg/kg single, 6 h before chemotherapeutic agent, cycle 7 days): 30%
- Relative remission rate (%) ([1]; Example 350, Fluorouracil 100 (F), oxaliplatin 5 (O), irinotecan 100 (I) and tetrahydrofolic acid 100 (L) mg/kg intraperitoneal injection single, compound oral administration 150 mg/kg single, 12 h before chemotherapeutic agent, cycle 7 days): 30%
- Relative remission rate (%) ([1]; Example 362, Etoposide 60 (E) and carboplatin 5 (C) mg/kg intraperitoneal injection single, compound oral administration 100 mg/kg single, 0.5 h before chemotherapeutic agent, cycle 10 days): 50%
- feces reduction rates compared with the chemotherapeutic agent group [1]: reduced to different degrees
- Relative remission rate (%) ([2]; Example 382, Fluorouracil (5-Fu) intravenous injection 70 mg/kg once a day, compound subcutaneous injection 100 mg/kg once a day, 12 h before chemotherapeutic agent): 20%
- relieving effects on diarrhea [2, 3]: have relieving effects
- relieving effects on diarrhea [2, 4]: significant

Structure (SMILES): O=C1NCC2(CCCCC2)n2c1cc1cnc(Nc3ccc(N4CCNCC4)cn3)nc12 [Compound II]
- Relative remission rate (%) ([1]; Example 283, Oxaliplatin intravenous injection 25 mg/kg single, compound intramuscular injection 100 mg/kg single, 1 h before chemotherapeutic agent, cycle 7 days): 50%
- Relative remission rate (%) ([1]; Example 284, Oxaliplatin intravenous injection 25 mg/kg single, compound intramuscular injection 100 mg/kg single, 6 h before chemotherapeutic agent, cycle 7 days): 30%
- Relative remission rate (%) ([1]; Example 285, Oxaliplatin intravenous injection 25 mg/kg single, compound intramuscular injection 100 mg/kg single, 12 h before chemotherapeutic agent, cycle 7 days): 30%
- Relative remission rate (%) ([1]; Example 347, Fluorouracil 100 (F), oxaliplatin 5 (O), irinotecan 100 (I) and tetrahydrofolic acid 100 (L) mg/kg intraperitoneal injection single, compound intravenous injection 100 mg/kg single, 0.5 h before chemotherapeutic agent, cycle 7 days): 70%
- Relative remission rate (%) ([1]; Example 348, Fluorouracil 100 (F), oxaliplatin 5 (O), irinotecan 100 (I) and tetrahydrofolic acid 100 (L) mg/kg intraperitoneal injection single, compound intravenous injection 100 mg/kg single, 2 h before chemotherapeutic agent, cycle 7 days): 50%
- Relative remission rate (%) ([1]; Example 359, Gemcitabine (GEM) intraperitoneal injection 120 mg/kg single, compound oral administration 100 mg/kg single, 12 h before chemotherapeutic agent, cycle 8 days): 40%
- Relative remission rate (%) ([1]; Example 361, Etoposide 60 (E) and carboplatin 5 (C) mg/kg intraperitoneal injection single, compound oral administration 100 mg/kg single, 2 h before chemotherapeutic agent, cycle 10 days): 60%
- Relative remission rate (%) ([1]; Example 364, Gemcitabine 120 (G) and carboplatin 5 (C) mg/kg intravenous injection single, compound oral administration 100 mg/kg single, 24 h before chemotherapeutic agent, cycle 8 days): 30%
- feces reduction rates compared with the chemotherapeutic agent group [1]: reduced to different degrees
- Relative remission rate (%) ([2]; Example 381, Fluorouracil (5-Fu) intravenous injection 70 mg/kg once a day, compound intramuscular injection 100 mg/kg once a day, 0.5 h before chemotherapeutic agent): 40%
- relieving effects on diarrhea [2, 3]: have relieving effects
- relieving effects on diarrhea [2, 4]: significant

Structure (SMILES): CC(C)N1CCN(c2ccc(Nc3ncc4cc5n(c4n3)C3(CCCCC3)CNC5=O)nc2)CC1 [Compound IV, Lerociclib]
- Relative remission rate (%) ([1]; Example 246, Fluorouracil (5-Fu) intravenous injection 250 mg/kg single, compound oral administration 100 mg/kg single, 0.5 h before chemotherapeutic agent, cycle 10 days): 30%
- Relative remission rate (%) ([1]; Example 247, Fluorouracil (5-Fu) intravenous injection 250 mg/kg single, compound oral administration 100 mg/kg single, 4 h before chemotherapeutic agent, cycle 10 days): 60%
- Relative remission rate (%) ([1]; Example 248, Fluorouracil (5-Fu) intravenous injection 250 mg/kg single, compound oral administration 100 mg/kg single, 12 h before chemotherapeutic agent, cycle 10 days): 20%
- Relative remission rate (%) ([1]; Example 351, Fluorouracil 100 (F), oxaliplatin 5 (O), irinotecan 100 (I) and tetrahydrofolic acid 100 (L) mg/kg intraperitoneal injection single, compound oral administration 100 mg/kg single, 4 h before chemotherapeutic agent, cycle 7 days): 60%
- Relative remission rate (%) ([1]; Example 352, Fluorouracil 100 (F), oxaliplatin 5 (O), irinotecan 100 (I) and tetrahydrofolic acid 100 (L) mg/kg intraperitoneal injection single, compound oral administration 100 mg/kg single, 24 h before chemotherapeutic agent, cycle 7 days): 30%
- Relative remission rate (%) ([1]; Example 363, Gemcitabine and carboplatin intraperitoneal injection 120 mg/kg single, compound oral administration 100 mg/kg single, 4 h before chemotherapeutic agent, cycle 8 days): 60%
- feces reduction rates compared with the chemotherapeutic agent group [1]: reduced to different degrees
- Relative remission rate (%) ([2]; Example 380, Fluorouracil (5-Fu) intraperitoneal injection 70 mg/kg once a day, compound oral administration 100 mg/kg once a day, 4 h before chemotherapeutic agent): 30%
- relieving effects on diarrhea [2, 3]: have relieving effects
- relieving effects on diarrhea [2, 4]: significant
